Columns and labels:
[1] = Acute toxicity, i.p., mice (DL50); format: in vivo; settings: mouse, in vivo, ip, i.p. injection, male Swiss mice; Wilcoxon method
Experimental: (§1) Male Swiss mice of 20-25 g body weight were treated by i.p. injection with rated concentrations of the three compounds. The values of DL50 and the relative confidence limits were calculated according to the method of Wilcoxon (J. Pharmac. Exp. Ther. 96, 99; 1949).

[2] = test system: Spontaneously hypertensive rats; assay: Hypotensive activity in vivo, spontaneously hypertensive rats, oral; parameters: species or system rat; settings: for ED50: Rattus norvegicus, 30' after oral administration, obtained from graphs; for anti-hypertensive activity (in words): in vivo, comparison among racemate and isomers
Experimental: Spontaneously hypertensive rats were employed after they were fasted for 16 hours and tested for their systemic pressure by bloodless measurements before and after oral administration of the three compounds at the doses of 5-10-15 mg/kg.
The administration of all the compounds gives rise to a lowering of the dose-dependent hypertension, because the regression coefficients are always significative. The ED50 values in mg/kg, obtained from the graphs of the activities observed, are as follows;

[3] = test system: post-synaptic alpha-receptors; assay: Alpha-blocking activity in vitro, isolated rabbit aorta, antagonism of nor-adrenaline response; format: biochemical; settings: for pA2 (M ±DS): isolated rabbit aorta, versus nor-adrenaline
Experimental: The aorta isolated from a rabbit and prepared according to the procedure of Furchgott and Bhadrakom (J. Pharm. Exp. Ther. 108, 129; 1953) was tested with cumulative doses of nor-adrenaline till maximum responde obtainable in the absence and in the presence of the three compounds. The pA2 values were calculated according to Ariens and Van Rossum (Arch. Int. Pharmacodyn. 110, 275; 1957)
It is evident from the Table given above that the (+) derivative is 100 times as active as the (-) derivative and almost 3 times as active as the (r) compound in blocking the post-synaptic alpha-receptors response to nor-adrenaline.

Male Swiss mice = assay: Acute toxicity, i.p., mice (DL50); format: in vivo
Experimental: as §1

Structure (SMILES) | LD50 [1] [mg/kg] | ED50 ([2]; 0.5 h) [mg/kg] | ED50 ([2]; 1.5 h, 1 h) [mg/kg] | pA2 (M ±DS) [3] | toxicity compared with racemic compound (in words) (Male Swiss mice; LD50 values or symptomatology) | anti-hypertensive activity (in words) [2] | anti-hypertensive activity (in words) ([2]; listed as dextrorotatory isomer) | activity relative to the (-) derivative in blocking the post-synaptic alpha-receptors response to nor-adrenaline ([3]; versus (-) derivative) [times] | activity relative to the (r) compound in blocking the post-synaptic alpha-receptors response to nor-adrenaline ([3]; versus (r) compound) [times] | DL50 (Male Swiss mice; i.p. injection, male Swiss mice, Wilcoxon method) [mg/kg] | anti-hypertensive activity (in words) ([2]; listed as laevorotatory isomer)
CCOC(CN1CCN(c2ccccc2OC)CC1)c1cccnc1 (racemic) [(r), (±) 1-(2-ethoxy-2-ethoxy-2-(3'-pyridyl)ethyl)-4-(o-methoxyphenyl)piperazine] | 75 | 7.8 | 18.8 | 8.62 ± 0.11 | – | – | – | – | – | – | –
CCOC(CN1CCN(c2ccccc2OC)CC1)c1cccnc1 (single isomer, unassigned; (+)) [(+), (+) 1-(2-ethoxy-2-(3'-pyridyl)ethyl)-4-(o-methoxyphenyl)piperazine] | 65 | 5.5 | 10.9 | 9.04 ± 0.03 | same toxicity of said racemic compound | most active form | higher anti-hypertensive activity than the racemic compound | 100 | ~3 | – | –
CCOC(CN1CCN(c2ccccc2OC)CC1)c1cccnc1 (single isomer, unassigned; (-)) [(-), (-) 1-(2-ethoxy-2-(3'-pyridyl)ethyl)-4-(o-methoxyphenyl)piperazine] | – | – | – | 6.95 ± 0.05 | – | quite low activity | – | – | – | 68 | almost inactive
